Measurements reported in patent US8193185B2, “Use of tryptanthrin compounds for immune potentiation” (Novartis Vaccines and Diagnostics, Inc., priority 2003, dated 2012).

System: human peripheral blood mononuclear cells (PBMC)
Test: HTS assay for small molecule immune potentiators: TNF-a production by human PBMC (sandwich ELISA)
Type: cell-based
Settings: human PBMC 500,000 per mL, 18 h at 37° C., secreted TNF by sandwich ELISA
Description: Candidate small molecule immune potentiators can be identified in vitro. Compounds are screened in vitro for their ability to stimulate human peripheral blood mononuclear cells to produce cytokines (e.g. TNF-a and IL-12 p40). Apoptosis inducing small molecules may be identified having this activity. These small molecule immunopotentiators have potential utility as adjuvants and immunotherapeutics.
In an assay procedure (High Throughput Screening (HTS)) for small molecule immune potentiators (SMIPs), human peripheral blood mononuclear cells (PBMC), 500,000 per mL in RPMI 1640 medium with 10% FCS, are distributed in 96 well plates (100,000 per well) already containing 5 μM of compound in DMSO. The PBMCs are incubated for 18 h at 37° C. in 5% CO2. Their ability to produce cytokines in response to the small molecule compounds is determined using a modified sandwich ELISA.
Briefly supernatants from the PBMC cultures are assayed for secreted TNF using a primary plate bound antibody for capture followed by a secondary biotinylated anti-TNF antibody forming a sandwich. The biotinylated second antibody is then detected using streptavidin-Europium and the amount of bound europium is determined by time resolved fluorescence. Compounds are screened for their TNF inducing activity that is measured in the assay as increased Europim counts over cells incubated in RPMI medium alone. “Hits” are selected based on their TNF-inducing activity relative to an optimal dose of lipopolysaccaride LPS (1 μg/ml), a strong TNF inducer. The robustness of the assay and low backgrounds have allowed for the routine selection of hits with ˜10% of LPS activity that is normally between 5-10× background (cells alone). Selected hits are then subjected to confirmation for their ability to induce cytokines from multiple donors at decreasing concentrations. Those compounds with consistent activity at or below 5 μM are considered confirmed for the purposes of this assay. The assay is readily modified for screening for compounds effective at higher or lower concentrations.

SMILES	minimal effective concentration [µM]
O=C1c2cc(I)ccc2-n2c1nc1ccc(I)cc1c2=O [Compound 1042, 2,8-diiodoindolo[2,1-b]quinazoline-6,12-dione]	≥ 20
O=C1c2cc(I)ccc2-n2c1nc1c(I)cc(I)cc1c2=O [Compound 1043, 2,4,8-triiodoindolo[2,1-b]quinazoline-6,12-dione]	≥ 20
O=C1c2cc(F)ccc2-n2c1nc1c(OCc3ccccc3)cccc1c2=O [Compound 1044, 8-fluoro-4-[(phenylmethyl)oxy]indolo [2,1-b]quinazoline-6,12-dione]	≥ 20
O=C1c2cc(Cl)ccc2-n2c1nc1cc(N3CCOCC3)ccc1c2=O [Compound 1045, 8-chloro-3-morpholin-4-ylindolo[2,1-b]quinazoline-6,12-dione]	≥ 20
O=C1c2cc(C(F)(F)F)ccc2-n2c1nc1ccccc1c2=O [Compound 1046, 8-(trifluoromethyl)indolo[2,1-b]quinazoline-6,12-dione]	≥ 20
CN(CC(=O)O)c1ccc2c(=O)n3c(nc2c1)C(=O)c1cc(Cl)ccc1-3 [Compound 1047, [(8-chloro-6,12-dioxo-6,12-dihydroindolo[2,1-b]quinazolin-3-yl)(methyl)amino]acetic acid]	≥ 20
CN(CCOC(=O)CCC(=O)O)c1ccc2c(=O)n3c(nc2c1)C(=O)c1cc(Cl)ccc1-3 [Compound 1048, 4-({2-[(8-chloro-6,12-dioxo-6,12-dihydroindolo[2,1-b]quinazolin-3-yl)(methyl)amino]ethyl}oxy)-4-oxobutanoic acid]	≥ 20
CCCCCCCC(=O)OCCN(C)c1ccc2c(=O)n3c(nc2c1)C(=O)c1cc(Cl)ccc1-3 [Compound 1049, 2-[(8-chloro-6,12-dioxo-6,12-dihydroindolo[2,1-b]quinazolin-3-yl)(methyl)amino]ethyl octanoate]	≥ 20
CN(CCO)c1ccc2c(=O)n3c(nc2c1)C(=O)c1cc(OC(F)(F)F)ccc1-3 [Compound 1050, 3-[(2-hydroxyethyl)(methyl)a-mino]-8-[(trifluoromethyl)oxy]indol o[2,1-b]quinazoline-6,12-dione]	≥ 20
O=C1c2cc(Cl)ccc2-n2c1nc1cc(SCCO)ccc1c2=O [Compound 1051, 8-chloro-3-[(2-hydroxyethyl)thio]indolo[2,1-b]quinazoline-6,12-dione]	≥ 20
CC(=O)OCCCCCCc1ccc2c(c1)C(=O)c1nc3ncccc3c(=O)n1-2 [Compound 1052, 6-(5,11-dioxo-5,11-dihydropyrido[2′,3′:4,5]py-rimido[1,2-a]indol-9-yl)hexyl acetate]	≥ 20
